Experimental data published in patent US20250188075A1, “SUBSTITUTED HETEROCYCLIC CSNK1 INHIBITORS” (The Broad Institute, Inc., priority 2022, published 2025).

Tests used:
[1] = Solubility assay (thermodynamic solubility); assay type: physicochemical; details: aqueous buffer, 24 h
Protocol: Solubility of solid compound in aqueous buffer was determined by an equilibrium shake flask method. A saturated solution of drug in solvent (˜2 mg/ml solvent) was prepared and the solution was mixed for 24 h to ensure that equilibrium has been reached. The solution was centrifuged to remove the insoluble fraction and the concentration of the compound in solution was determined by HPLC-UV using a standard calibration curve (Kerns, E. H. et al., Solubility Methods in: Drug-like Properties: Concepts, Structure Design and Methods, p 276-286. Burlington, MA: Academic Press 2008).

[2] = molecular target: human Ether-a-go-go-Related Gene (hERG) potassium channel (Homo sapiens (Human), UniProt Q12809); experiment: hERG inhibition assay, automated voltage clamp; assay type: cell-based; details: HEK293 cells stably expressing hERG alpha subunit
Sequence of human Ether-a-go-go-Related Gene (hERG) potassium channel (Q12809 whole entry): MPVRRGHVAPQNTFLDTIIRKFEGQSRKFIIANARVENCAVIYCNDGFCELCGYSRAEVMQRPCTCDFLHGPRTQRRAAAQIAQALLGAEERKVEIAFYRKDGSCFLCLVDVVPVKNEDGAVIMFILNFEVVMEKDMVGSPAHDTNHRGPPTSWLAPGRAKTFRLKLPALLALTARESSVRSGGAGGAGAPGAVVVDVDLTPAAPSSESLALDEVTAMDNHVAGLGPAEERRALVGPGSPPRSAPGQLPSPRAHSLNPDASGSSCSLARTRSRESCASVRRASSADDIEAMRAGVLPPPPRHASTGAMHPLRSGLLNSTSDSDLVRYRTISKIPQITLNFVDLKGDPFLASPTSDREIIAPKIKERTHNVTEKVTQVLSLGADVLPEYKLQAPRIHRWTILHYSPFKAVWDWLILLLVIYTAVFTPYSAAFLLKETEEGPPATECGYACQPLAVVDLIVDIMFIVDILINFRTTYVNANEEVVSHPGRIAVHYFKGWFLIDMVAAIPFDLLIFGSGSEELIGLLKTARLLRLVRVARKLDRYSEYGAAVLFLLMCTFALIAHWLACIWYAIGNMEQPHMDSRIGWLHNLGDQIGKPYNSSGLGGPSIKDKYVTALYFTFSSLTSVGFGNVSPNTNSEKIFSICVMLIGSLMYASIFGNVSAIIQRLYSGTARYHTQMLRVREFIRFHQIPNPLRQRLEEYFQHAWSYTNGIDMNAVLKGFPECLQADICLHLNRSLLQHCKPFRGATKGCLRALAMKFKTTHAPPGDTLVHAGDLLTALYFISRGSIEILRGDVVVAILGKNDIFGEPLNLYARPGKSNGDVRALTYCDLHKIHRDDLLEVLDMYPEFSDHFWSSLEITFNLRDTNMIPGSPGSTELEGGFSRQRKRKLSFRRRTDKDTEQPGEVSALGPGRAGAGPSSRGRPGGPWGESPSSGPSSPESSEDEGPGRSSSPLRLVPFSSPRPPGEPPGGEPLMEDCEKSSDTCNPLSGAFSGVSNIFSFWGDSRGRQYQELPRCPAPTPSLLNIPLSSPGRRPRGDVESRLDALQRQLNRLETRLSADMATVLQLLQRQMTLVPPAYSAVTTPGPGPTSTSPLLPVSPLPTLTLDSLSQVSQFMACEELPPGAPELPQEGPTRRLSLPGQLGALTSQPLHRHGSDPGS
Protocol: Following harvest, cells were transferred to the cell reservoir of a 384 channel automated patch clamp device and stored there at 20° C. until usage.
Upon start of the automated voltage clamp procedure, hERG cells were transferred to a 384 well patch clamp chip (pipette resistance of ˜[…] (2) prefilled with external solution (containing in mM: 143 NaCl, 4 KCl, 2 CaCl2), 1 MgCl2, 5 glucose, 10 HEPES; pH 7.4 (NaOH)). Underpressure was applied underneath the glass bottom of the patch clamp chip to position the hERG cells on the recording sites in the glass bottom of the chip. Following successful cell catch, underpressure was stopped and a seal enhancing solution (containing in mM: 78 NaCl, 60 NMDG, 4 KCl, 10 CaCl2), 1 MgCl2, 5 glucose, 10 HEPES; pH 7.4 (HCl)) was added to the hERG cells to facilitate the formation of stable seals between the membranes of the hERG cells and the glass next to the recording sites. Then, hERG cells were washed several times with wash solution (containing in mM: 87 NaCl, 60 NMDG, 4 KCl, 2 CaCl2), 1 MgCl2, 5 glucose, 10 HEPES; pH 7.4 (HCl)) to remove excess seal enhancing solution. In the meantime, the membrane parts of the hERG cells covering the recording sites were exposed to internal solution (containing in mM: 10 NaCl, 123 KF, 10 EGTA, 10 HEPES; pH 7.2 (KOH)) supplemented with 5-20 μM Escin, and the perforated patch configuration was established. Next, the holding potential was stepwise adjusted to −80 mV, capacitance was compensated, and a series of defined voltage commands was initiated to trigger the hERG current response from the hERG cells (−80 mV for 200 ms, +20 mV for 1000 ms, −40 mV for 500 ms; repeated at a frequency of 0.1 Hz). To determine whether the test item inhibits hERG, different solutions were sequentially applied to the hERG cells: First, a negative control (i.e. wash solution supplemented with 0.3% DMSO and 0.01% HSA) was applied for at least 3 min to investigate the basic electrophysiological properties of the hERG cells as well as define their standard current response. Next, a solution containing the test item at a final concentration of (0.1, 1, or 10) μM was applied for 10 min to measure eventual inhibitory effects of the test item on the hERG current (—the test item solution was produced from a 10 mM DMSO stock by using an automated pipetting device and sequential dilution). Finally, a positive control (i.e. wash solution supplemented with 0.3% DMSO, 0.01% HSA, and 10 μM quinidine) was added to the cells for ˜3 min to block the hERG current and, thereby, define the maximum inhibition. For data analysis, experimental results were processed using the automated patch clamp device-specific software as well as a custom-made software, and TIBCO Spotfire. For each successful recording, hERG tail current amplitudes were averaged from three consecutive current responses at the end of the negative control phase, test item phase, and positive control phase, respectively. Resulting mean hERG tail current amplitudes were normalized to the mean hERG tail current amplitude at the end of the negative control phase with nominal 0% inhibition as well as the hERG tail current amplitude at the end of the positive control phase with nominal 100% inhibition. Then, the effect of the test item was calculated as a percentage inhibition value at the test item concentration applied. Finally, percentage inhibition values from all successful recordings at a particular test item concentration were averaged and combined to construct a standard sigmoidal dose response curve, determine the half maximal inhibitory concentration (IC50) of the test item as well as extrapolate its IC20.

O=C(Cc1ccc(F)cc1)Nc1cc(-c2[nH]c3ccc(F)nc3c2-c2ccccn2)ccn1 [Example C4, reference compound]
Thermodynamic Solubility [mg/l] (mean) [1]: 2.35 mg/L
IC50 [2]: 1.16 µM
